Measurements taken from patent US20040063763A1, “2-METHOXYIMINO-2(PYRIDINYLOXYMETHYL)PHENYL ACETAMIDES USEFUL AS FUNGICIDES” (priority 2003, published 2004).

Tests used:
Assay type in all cases: in vivo
Erysiphe graminis = test: Powdery Mildew of Wheat 1-day protectant whole plant test (ERYSGT 1DP); details: 100 ppm spray to run off, wheat (cultivar Monon), inoculated after 24 hours
Puccinia recondita = test: Brown rust of wheat 1-day protectant whole plant test (PUCCRT 1DP); details: 100 ppm spray to run off, wheat (cultivar Monon), inoculated after 24 hours
Phytophthora infestans = details: 100 ppm spray to run off, tomatoes (cultivar Rutgers), inoculated after 24 hours

CNC(=O)/C(=N/OC)c1ccccc1COc1ncc(C2=NOCC2)cc1C [Compound 1, (2E)-2-[2˜({[5-(4,5-dihydroisoxazol-3-yl)-3-methylpyridin-2-yl]oxy}methyl)phenyl]-2-(methoxyimino)-N-methylethanamide]
>95%: ERYSGT 1DP percent control of the plant disease (Erysiphe graminis) | PUCCRT 1DP percent control of the plant disease (Puccinia recondita) | PHYTIN 1DP percent control of the plant disease (Phytophthora infestans)
